Target: GLP-1 Receptor (Homo sapiens, UniProt P43220)
Experiment: GLP-1R agonist cAMP stimulation assay (HEK293/GLP1R/CRE-LUC cells, cAMP dynamic 2 Kit)
Type: cell-based
Conditions: HEK293/CRE-Luc cell line stably expressing the GLP-1 Receptor, 30 min at 37° C.
Outline: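 HEK293 cells stably expressing human GLP-1R with CRE-luciferase, 1000 cells/well in DPBS with 0.5 mM IBMX and 0.1% BSA, treated with compound in 1/2-log serial dilution for 30 min at 37 °C. cAMP then detected by HTRF (cAMP-d2 plus anti-cAMP cryptate), 1 h at room temperature in the dark.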

GLP-1 Receptor, sequence (P43220 24-463, species assumed): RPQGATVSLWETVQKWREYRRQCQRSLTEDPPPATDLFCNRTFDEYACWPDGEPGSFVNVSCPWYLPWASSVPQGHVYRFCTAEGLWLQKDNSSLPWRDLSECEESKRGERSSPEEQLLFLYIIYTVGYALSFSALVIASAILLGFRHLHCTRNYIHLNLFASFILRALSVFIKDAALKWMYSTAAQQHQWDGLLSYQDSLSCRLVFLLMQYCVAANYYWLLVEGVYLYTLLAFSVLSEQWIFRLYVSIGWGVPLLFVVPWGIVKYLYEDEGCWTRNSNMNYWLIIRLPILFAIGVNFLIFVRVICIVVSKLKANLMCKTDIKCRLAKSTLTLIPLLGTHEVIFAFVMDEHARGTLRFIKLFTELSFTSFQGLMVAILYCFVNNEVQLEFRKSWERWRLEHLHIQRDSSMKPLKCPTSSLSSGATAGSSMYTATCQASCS

EC50 [nM] | Compound
0.1 | C[C@H]1CN(c2ccc(F)c(OCc3ccc(Cl)cc3F)c2)CCN1Cc1nc2cc(-c3nnc(C(F)(F)F)[nH]3)ncc2n1C[C@@H]1CCO1 [Compound 479a, (2S)-4-{3-[(4-chloro-2-fluorophenyl)methoxy]-4-fluorophenyl}-2-methyl-1-[(3-{[(2S)-oxetan-2-yl]methyl}-6-[5-(trifluoromethyl)-4H-1,2,4-triazol-3-yl]-3H-imidazo[4,5-c]pyridin-2-yl)methyl]piperazine]
0.018 | C[C@H]1CN(c2cccc(OCc3ccc(Cl)cc3F)n2)CCN1Cc1nc2cc(-c3nnc(C(F)(F)F)[nH]3)ncc2n1C[C@@H]1CCO1 [Compound 480a, (2S)-4-{6-[(4-chloro-2-fluorophenyl)methoxy]pyridin-2-yl}-2-methyl-1-[(3-{[(2S)-oxetan-2-yl]methyl}-6-[5-(trifluoromethyl)-4H-1,2,4-triazol-3-yl]-3H-imidazo[4,5-c]pyridin-2-yl)methyl]piperazine]
0.0048 | C[C@]1(c2ccc(Cl)cn2)Oc2cccc(C3CCN(Cc4nc5cc(-c6nnc(C#N)[nH]6)ncc5n4C[C@@H]4CCO4)CC3)c2O1 [Compound 481a, 5-[2-({4-[(2S)-2-(5-chloropyridin-2-yl)-2-methyl-2H-1,3-benzodioxol-4-yl]piperidin-1-yl}methyl)-3-{[(2S)-oxetan-2-yl]methyl}-3H-imidazo[4,5-c]pyridin-6-yl]-4H-1,2,4-triazole-3-carbonitrile]
0.032 | C[C@]1(c2ccc(Cl)cn2)Oc2cccc(C3CCN(Cc4nc5cc(-c6nnc(C#N)[nH]6)nnc5n4C[C@@H]4CCO4)CC3)c2O1 [Compound 482a, 5-[6-({4-[(2S)-2-(5-chloropyridin-2-yl)-2-methyl-2H-1,3-benzodioxol-4-yl]piperidin-1-yl}methyl)-7-{[(2S)-oxetan-2-yl]methyl}-7H-imidazo[4,5-c]pyridazin-3-yl]-4H-1,2,4-triazole-3-carbonitrile]
0.51 | Fc1cc(Cl)ccc1COc1cc(N2CCN(Cc3nc4cc(-c5nnc(C(F)(F)F)[nH]5)nnc4n3C[C@@H]3CCO3)CC2)ccc1F [Compound 483a, 1-{3-[(4-chloro-2-fluorophenyl)methoxy]-4-fluorophenyl}-4-[(7-{[(2S)-oxetan-2-yl]methyl}-3-[5-(trifluoromethyl)-4H-1,2,4-triazol-3-yl]-7H-imidazo[4,5-c]pyridazin-6-yl)methyl]piperazine]
0.0063 | N#Cc1nnc(-c2cc3nc(CN4CCC(c5cccc(OCc6ccc(Cl)cc6F)n5)CC4)n(C[C@@H]4CCO4)c3cn2)[nH]1 [Compound 484a, 5-{2-[(4-{6-[(4-chloro-2-fluorophenyl)methoxy]pyridin-2-yl}piperidin-1-yl)methyl]-3-{[(2S)-oxetan-2-yl]methyl}-3H-imidazo[4,5-c]pyridin-6-yl}-4H-1,2,4-triazole-3-carbonitrile]
0.0096 | N#Cc1ccc(COc2nc(C3CCN(Cc4nc5cc(-c6nnc(C(F)(F)F)[nH]6)ncc5n4C[C@@H]4CCO4)CC3)ccc2F)c(F)c1 [Compound 485a, 3-fluoro-4-{[(3-fluoro-6-{1-[(3-{[(2S)-oxetan-2-yl]methyl}-6-[5-(trifluoromethyl)-4H-1,2,4-triazol-3-yl]-3H-imidazo[4,5-c]pyridin-2-yl)methyl]piperidin-4-yl}pyridin-2-yl)oxy]methyl}benzonitrile]
0.038 | Fc1cc(Cl)ccc1COc1cccc(C2CCN(Cc3nc4cc(-c5nnc(C(F)(F)F)[nH]5)nnc4n3C[C@@H]3CCO3)CC2)n1 [Compound 486a, 2-[(4-chloro-2-fluorophenyl)methoxy]-6-{1-[(7-{[(2S)-oxetan-2-yl]methyl}-3-[5-(trifluoromethyl)-4H-1,2,4-triazol-3-yl]-7H-imidazo[4,5-c]pyridazin-6-yl)methyl]piperidin-4-yl}pyridine]
0.029 | N#Cc1ccc(COc2cccc(C3CCN(Cc4nc5cc(-c6nnc(C(F)(F)F)[nH]6)nnc5n4C[C@@H]4CCO4)CC3)n2)c(F)c1 [Compound 487a, 3-fluoro-4-{[(6-{1-[(7-{[(2S)-oxetan-2-yl]methyl}-3-[5-(trifluoromethyl)-4H-1,2,4-triazol-3-yl]-7H-imidazo[4,5-c]pyridazin-6-yl)methyl]piperidin-4-yl}pyridin-2-yl)oxy]methyl}benzonitrile]
0.054 | Fc1cc(Cl)ccc1COc1nc(C2CCN(Cc3nc4cc(-c5nnc(C(F)(F)F)[nH]5)nnc4n3C[C@@H]3CCO3)CC2)ccc1F [Compound 488a, 2-[(4-chloro-2-fluorophenyl)methoxy]-3-fluoro-6-{1-[(7-{[(2S)-oxetan-2-yl]methyl}-3-[5-(trifluoromethyl)-4H-1,2,4-triazol-3-yl]-7H-imidazo[4,5-c]pyridazin-6-yl)methyl]piperidin-4-yl}pyridine]
0.087 | C[C@H]1CN(c2ncc(F)c(OCc3ccc(Cl)cc3F)n2)CCN1Cc1nc2cc(-c3nnc(C(F)(F)F)[nH]3)ncc2n1C[C@@H]1CCO1 [Compound 489a, 4-[(4-chloro-2-fluorophenyl)methoxy]-5-fluoro-2-[(3S)-3-methyl-4-[(3-{[(2S)-oxetan-2-yl]methyl}-6-[5-(trifluoromethyl)-4H-1,2,4-triazol-3-yl]-3H-imidazo[4,5-c]pyridin-2-yl)methyl]piperazin-1-yl]pyrimidine]
0.086 | Fc1cc(Cl)ccc1COc1nc(N2CCN(Cc3nc4cc(-c5nnc(C(F)(F)F)[nH]5)ncc4n3C[C@@H]3CCO3)CC2)ncc1F [Compound 490a, 4-[(4-chloro-2-fluorophenyl)methoxy]-5-fluoro-2-{4-[(3-{[(2S)-oxetan-2-yl]methyl}-6-[5-(trifluoromethyl)-4H-1,2,4-triazol-3-yl]-3H-imidazo[4,5-c]pyridin-2-yl)methyl]piperazin-1-yl}pyrimidine]
0.057 | Fc1cc(Cl)ccc1COc1nc(C2CCN(Cc3nc4cc(-c5nnc(C(F)(F)F)[nH]5)ncc4n3C[C@@H]3CCO3)CC2)ncc1F [Compound 491a, 4-[(4-chloro-2-fluorophenyl)methoxy]-5-fluoro-2-{1-[(3-{[(2S)-oxetan-2-yl]methyl}-6-[5-(trifluoromethyl)-4H-1,2,4-triazol-3-yl]-3H-imidazo[4,5-c]pyridin-2-yl)methyl]piperidin-4-yl}pyrimidine]
0.084 | Fc1cc(Cl)ccc1COc1cccc(N2CCN(Cc3nc4cc(-c5nnc(C(F)(F)F)[nH]5)nnc4n3C[C@@H]3CCO3)CC2)n1 [Compound 492a, 1-{6-[(4-chloro-2-fluorophenyl)methoxy]pyridin-2-yl}-4-[(7-{[(2S)-oxetan-2-yl]methyl}-3-[5-(trifluoromethyl)-4H-1,2,4-triazol-3-yl]-7H-imidazo[4,5-c]pyridazin-6-yl)methyl]piperazine]
0.044 | N#Cc1ccc(COc2cccc(N3CCN(Cc4nc5cc(-c6nnc(C(F)(F)F)[nH]6)nnc5n4C[C@@H]4CCO4)CC3)n2)c(F)c1 [Compound 493a, 3-fluoro-4-{[(6-{4-[(7-{[(2S)-oxetan-2-yl]methyl}-3-[5-(trifluoromethyl)-4H-1,2,4-triazol-3-yl]-7H-imidazo[4,5-c]pyridazin-6-yl)methyl]piperazin-1-yl}pyridin-2-yl)oxy]methyl}benzonitrile]
0.013 | Fc1cc(Cl)ccc1COc1cccc(N2CCN(Cc3nc4cc(-c5nnc(C(F)(F)F)[nH]5)cnc4n3C[C@@H]3CCO3)CC2)n1 [Compound 494a, 1-{6-[(4-chloro-2-fluorophenyl)methoxy]pyridin-2-yl}-4-[(3-{[(2S)-oxetan-2-yl]methyl}-6-[5-(trifluoromethyl)-4H-1,2,4-triazol-3-yl]-3H-imidazo[4,5-b]pyridin-2-yl)methyl]piperazine]
0.0084 | N#Cc1ccc(COc2cccc(N3CCN(Cc4nc5cc(-c6nnc(C(F)(F)F)[nH]6)cnc5n4C[C@@H]4CCO4)CC3)n2)c(F)c1 [Compound 495a, 3-fluoro-4-{[(6-{4-[(3-{[(2S)-oxetan-2-yl]methyl}-6-[5-(trifluoromethyl)-4H-1,2,4-triazol-3-yl]-3H-imidazo[4,5-b]pyridin-2-yl)methyl]piperazin-1-yl}pyridin-2-yl)oxy]methyl}benzonitrile]
0.017 | Cc1ccc(COc2cccc(C3CCN(Cc4nc5cc(-c6nnc(C(F)(F)F)[nH]6)ncc5n4C[C@@H]4CCO4)CC3)n2)c(F)c1 [Compound 496a, 2-[(2-fluoro-4-methylphenyl)methoxy]-6-{1-[(3-{[(2S)-oxetan-2-yl]methyl}-6-[5-(trifluoromethyl)-4H-1,2,4-triazol-3-yl]-3H-imidazo[4,5-c]pyridin-2-yl)methyl]piperidin-4-yl}pyridine]
0.034 | Fc1cc(C(F)(F)F)ccc1COc1cccc(C2CCN(Cc3nc4cc(-c5nnc(C(F)(F)F)[nH]5)ncc4n3C[C@@H]3CCO3)CC2)n1 [Compound 497a, 2-{[2-fluoro-4-(trifluoromethyl)phenyl]methoxy}-6-{1-[(3-{[(2S)-oxetan-2-yl]methyl}-6-[5-(trifluoromethyl)-4H-1,2,4-triazol-3-yl]-3H-imidazo[4,5-c]pyridin-2-yl)methyl]piperidin-4-yl}pyridine]
0.099 | Fc1cc(C2CC2)ccc1COc1cccc(C2CCN(Cc3nc4cc(-c5nnc(C(F)(F)F)[nH]5)ncc4n3C[C@@H]3CCO3)CC2)n1 [Compound 498a, 2-[(4-cyclopropyl-2-fluorophenyl)methoxy]-6-{1-[(3-{[(2S)-oxetan-2-yl]methyl}-6-[5-(trifluoromethyl)-4H-1,2,4-triazol-3-yl]-3H-imidazo[4,5-c]pyridin-2-yl)methyl]piperidin-4-yl}pyridine]
0.04 | Fc1cc(Cl)ccc1COc1cccc(C2CCN(Cc3nc4cc(-c5nnc(C(F)(F)F)[nH]5)ncc4n3C[C@@H]3CCO3)CC2F)n1 (stereo partly drawn) [Compound 499a, 2-[(4-chloro-2-fluorophenyl)methoxy]-6-[(3,4-trans)-3-fluoro-1-[(3-{[(2S)-oxetan-2-yl]methyl}-6-[5-(trifluoromethyl)-4H-1,2,4-triazol-3-yl]-3H-imidazo[4,5-c]pyridin-2-yl)methyl]piperidin-4-yl]pyridine]
